In brackets after ≈: the same amount, converted by molar mass. Values belong to the molecule of their own block, whether it stands above or below them.
Key:
Leishmania major [1] = assay: Antileishmanial activity against promastigote form of Leishmania major assessed as inhibition of parasite growth by MTT colorimetric cell viability assay; assay type: functional, organism-based
Leishmania major [2] = assay: Antileishmanial activity against promastigote form of Leishmania major assessed as inhibition incubated for 48 hrs by MTT assay; assay type: functional, organism-based
Leishmania panamensis [3] = assay: Antileishmanial activity against intracellular Leishmania panamensis amastigotes infected in human U-937 cells assessed as inhibition at 20 ug/mL incubated for 72 hrs by flow cytometry relative to control; assay type: functional
Leishmania major [4] = assay: Antileishmanial activity against promastigote form of Leishmania major assessed as inhibition incubated for 72 hrs by MTT assay; assay type: functional, organism-based
Leishmania infantum [5] = assay: Antileishmanial activity against promastigote form of Leishmania infantum; assay type: functional, organism-based
Leishmania braziliensis = assay: Antileishmanial activity against promastigote form of Leishmania braziliensis; assay type: functional, organism-based; details: Leishmania braziliensis
Leishmania amazonensis [6] = assay: Antileishmanial activity against Leishmania amazonensis infected in BALB/c mouse assessed as reduction in parasite load at 10 mg/kg, sc administered for 14 days relative to control; assay type: functional; set-up: scale not given: the % may be the effect or the level left; details: time 14 day
Leishmania amazonensis [7] = assay: Antileishmanial activity against promastigote form of Leishmania amazonensis; assay type: functional, organism-based
Leishmania major [8] = assay: Antileishmanial activity against promastigote form of Leishmania major assessed as inhibition at 100 uM incubated for 72 hrs by MTT assay relative to control; assay type: functional
Leishmania donovani [9] = assay: Antileishmanial activity against amastigote form of Leishmania donovani at 50 uM assessed as inhibition of parasite growth relative to control; assay type: functional
Leishmania donovani [10] = assay: Antileishmanial activity against amastigote form of Leishmania donovani; assay type: functional, organism-based
Leishmania donovani [11] = assay: Antileishmanial activity against promastigote form of Leishmania donovani; assay type: functional, organism-based
Leishmania major [12] = assay: Antileishmanial activity against amastigote form of Leishmania major; assay type: functional, organism-based
Leishmania amazonensis [13] = assay: Antileishmanial activity against amastigote form of Leishmania amazonensis assessed as parasite growth inhibition; assay type: functional, organism-based
Leishmania amazonensis [14] = assay: Antileishmanial activity against promastigote form of Leishmania amazonensis assessed as parasite growth inhibition incubated for 72 hrs by neubauer counting chamber analysis; assay type: functional, organism-based
[15] = Selectivity index, ratio of IC50 for cytotoxicity against human THP-1 cells to IC50 for antileishmanial activity against axenic amastigote stage of Leishmania infantum infected in human THP-1 cells; assay type: toxicity, cell-based; details: read-out: Selectivity Index
THP-1 = assay: Cytotoxicity against human THP-1 cells assessed as inhibition incubated for 24 hrs by flow cytometry assay; assay type: functional, cell-based; details: THP-1, 24 h
Leishmania infantum [16] = assay: Antileishmanial activity against axenic amastigote stage of Leishmania infantum infected in human THP-1 cells assessed as inhibition of parasite growth incubated for 24 hrs by flow cytometry assay; assay type: functional, organism-based; details: THP-1, 24 h
Leishmania major [17] = assay: Antileishmanial activity against promastigote form of Leishmania major assessed as inhibition of parasite growth by Litchfield-Wilcoxon method; assay type: functional, organism-based
Leishmania amazonensis [18] = assay: Antileishmanial activity against promastigote form of Leishmania amazonensis assessed as inhibition of parasite growth at 100 uM incubated for 72 hrs by neubauer counting chamber analysis relative to control; assay type: functional
Leishmania chagasi = assay: Antileishmanial activity against promastigote form of Leishmania chagasi; assay type: functional, organism-based
Leishmania mexicana = assay: Antileishmanial activity against promastigote form of Leishmania mexicana; assay type: functional, organism-based
Leishmania major [19] = assay: Antileishmanial activity against promastigote form of Leishmania major; assay type: functional, organism-based
Leishmania infantum [20] = assay: Antileishmanial activity against amastigote form of Leishmania infantum; assay type: functional, organism-based
Peritoneal macrophage = assay: Cytotoxicity against mouse peritoneal macrophage; assay type: functional, cell-based
Leishmania panamensis [21] = assay: Antileishmanial activity against intracellular Leishmania panamensis amastigotes infected in human U-937 cells assessed as inhibition incubated for 72 hrs by flow cytometry; assay type: functional, organism-based; details: U-937, 72 h
Leishmania amazonensis [22] = assay: Antileishmanial activity against promastigote form of Leishmania amazonensis assessed as parasite growth inhibition incubated for 72 hrs by regression analysis; assay type: functional, organism-based

Compound: CC1(O)CC(CC(C)(O)C(O)COc2ccc3ccc(=O)oc3c2O)OC1=O (stereo not given)
- IC50 (Leishmania major [1]): > 100 µM

Compound: C/C(=C\COc1cc(O)cc2oc(=O)ccc12)C/C=C/C(C)(C)OO
- IC50 (Leishmania major [1]): 26.2 µM

Compound: O=c1oc2ccc(/N=C/c3ccco3)cc2cc1-c1ccc2c(c1)OCO2
- IC50 (Leishmania major [2]): 223 µM

Compound: Cc1cc(=O)oc2cc(OCCCCCOc3cc(Cl)ccc3Oc3ccc(Cl)cc3Cl)ccc12
- inhibition at 20 µg/mL (Leishmania panamensis [3]): 50%

Compound: O=c1oc2ccccc2cc1-c1nnc2n1N=C(c1ccc(Cl)c(Cl)c1)CS2
- IC50 (Leishmania major [4]): 0.89 µM

- IC50 (Leishmania infantum [5]): 27.5 µM
- IC50 (Leishmania braziliensis): 32.1 µM
- IC50 (Leishmania amazonensis [7]): 35.8 µM
Compound: C=CC(C)(C)c1cc2cc3c(cc2oc1=O)OC(C)(C)[C@@H](O)C3
- Activity (Leishmania amazonensis [6]): 95.6%

Compound: C[C@@H]1[C@H](O)[C@@H](C)/C=C/C=C/C=C/C=C/C=C/C=C/C=C/[C@H](O[C@@H]2O[C@H](C)[C@@H](O)[C@H](N)[C@@H]2O)C[C@@H]2O[C@](O)(C[C@@H](O)C[C@@H](O)[C@H](O)CC[C@@H](O)C[C@@H](O)CC(=O)O[C@H]1C)C[C@H](O)[C@H]2C(=O)O [AMPHOTERICIN B]
- inhibition at 100 µM (Leishmania major [8]): 79.8%

Compound: C=C1CC(C/C(C)=C/COc2ccc3ccc(=O)oc3c2O)OC1=O (stereo not given) [CLAUSLACTONE E]
- IC50 (Leishmania major [1]): 9.8 µM

- IC50 (Leishmania donovani [10]): 14.2 µM
Compound: N#CCC1=NN=C(c2cc3ccccc3oc2=O)C(CC(=O)c2ccc(Cl)cc2)O1 (stereo not given)
- inhibition at 50 µM (Leishmania donovani [9]): 95%

- IC50 (Leishmania donovani [10]): > 90 µM
- IC50 (Leishmania donovani [11]): 10.2 µM
Compound: COc1cc(O[C@@H]2O[C@H](CO)[C@@H](O)[C@H](O)[C@H]2O)c2c(-c3ccc(OC)c(OC)c3)cc(=O)oc2c1

- IC50 (Leishmania donovani [10]): > 90 µM
- IC50 (Leishmania donovani [11]): 28.9 µM
Compound: COc1cc(O[C@@H]2O[C@H](CO)[C@@H](O)[C@H](O)[C@H]2O)c2c(-c3ccc(O)c(O)c3)cc(=O)oc2c1

- IC50 (Leishmania major [12]): 14.9 µg/mL (≈ 61.2 µM)
Compound: COc1ccc2ccc(=O)oc2c1CC=C(C)C [OSTHOLE]

Compound: CC(C)=CCOc1ccc2c(-c3ccccc3)cc(=O)oc2c1
- IC50 (Leishmania amazonensis [13]): 58.1 µM
- IC50 (Leishmania amazonensis [14]): 21.4 µM

Compound: CCCCCCCCCCCCCCCCOP(=O)([O-])OCC[N+](C)(C)C [MILTEFOSINE]
- IC50 (Leishmania infantum [5]): 7.5 µM
- selectivity ratio [15]: 7
- IC50 (Leishmania braziliensis): 10.4 µM
- IC50 (THP-1): 18.5 µM
- IC50 (Leishmania infantum [16]): 2.84 µM
- IC50 (Leishmania amazonensis [7]): 9.4 µM

Compound: CC(C)=C1CC[C@H](C)[C@](C)(COc2ccc3ccc(=O)oc3c2)[C@H]1CCC(=O)O [GALBANIC ACID]
- IC50 (Leishmania major [17]): 165 µM

- IC50 (Leishmania donovani [10]): > 90 µM
- IC50 (Leishmania donovani [11]): 12.4 µM
Compound: COc1cc(O[C@@H]2O[C@H](COC(C)=O)[C@@H](OC(C)=O)[C@H](OC(C)=O)[C@H]2OC(C)=O)c2c(-c3ccc(OC(C)=O)c(OC(C)=O)c3)cc(=O)oc2c1

Compound: COc1cc(OC)c2ccc(=O)oc2c1OC
- inhibition at 100 µM (Leishmania amazonensis [18]): 91%
- IC50 (Leishmania amazonensis [14]): 57.7 µM

Compound: Cc1cc(=O)oc2cc(OCCCOc3cc(Cl)ccc3Oc3ccc(Cl)cc3Cl)ccc12
- inhibition at 20 µg/mL (Leishmania panamensis [3]): 34%

Compound: N=C(N)c1ccc(OCCCCCOc2ccc(C(=N)N)cc2)cc1 [PENTAMIDINE]
- EC50 (Leishmania chagasi): 5.2 µg/mL (≈ 15.3 µM)
- EC50 (Leishmania mexicana): 1.75 µg/mL (≈ 5.14 µM)
- EC50 (Leishmania donovani [11]): 1.41 µg/mL (≈ 4.14 µM)
- EC50 (Leishmania major [19]): 1.46 µg/mL (≈ 4.29 µM)

- IC50 (Leishmania infantum [20]): 6.8 µM
Compound: CC1=CC[C@@H]2C(C)(C)[C@H](O)CC[C@@]2(C)[C@@H]1COc1ccc2ccc(=O)oc2c1 [FESELOL]
- IC50 (Peritoneal macrophage): 8 µM

- IC50 (Leishmania panamensis [21]): 53.1 µM
Compound: Cc1cc(=O)oc2cc(OCCCCOc3cc(Cl)ccc3Oc3ccc(Cl)cc3Cl)ccc12
- inhibition at 20 µg/mL (Leishmania panamensis [3]): 57.1%

Compound: O=c1cc(-c2ccccc2)c2c(O)cc(O)cc2o1
- IC50 (Leishmania amazonensis [22]): 60.2 µM

Compound: O=c1cc(-c2ccccc2)c2ccc(O[C@@H]3O[C@H](CO)[C@@H](O)[C@H](O)[C@H]3O)cc2o1
- IC50 (Leishmania amazonensis [14]): 91.8 µM

Compound: COC(=O)C1=C(N)Oc2cc(O)c3c(C)cc(=O)oc3c2C1c1ccc([N+](=O)[O-])cc1 (stereo not given)
- IC50 (Leishmania amazonensis [13]): 33.1 µM

Compound: N#CCC1=NN=C(c2cc3ccccc3oc2=O)C(CC(=O)c2ccccc2)O1 (stereo not given)
- inhibition at 50 µM (Leishmania donovani [9]): 36%

Compound: C=C(C)C(CC/C(C)=C/COc1cc(O)cc2oc(=O)ccc12)OO (stereo not given)
- IC50 (Leishmania major [1]): 20.2 µM

Reference: ChEMBL document CHEMBL5244247, “Natural and synthetic coumarins as antileishmanial agents: A review” (Eur J Med Chem, 2020)
